Consider 10 compounds from publication PMC9549282, “Transcriptome analysis of megalurothrips usitatus (Bagnall) identifies olfactory genes with ligands binding characteristics of MusiOBP1 and MusiCSP1” (Frontiers in Physiology, 2022).

In one assay the target is T1, MusiCSP1.
T1 construct: pET32a(+) BamHI/HindIII fusion (about 31 kDa) in E. coli BL21(DE3), Ni-NTA, His-tag fusion cut off with enterokinase
Kind of assay: 1-NPN fluorescence displacement. Format: binding, Megalurothrips usitatus. To be noted: 2 μM protein, 2 μM 1-NPN; ligand 2-16 μM; competitive with 1-NPN. The text has this: 1-NPN fluorescence displacement on MusiCSP1
In turn, `CC(C)=CCC/C(C)=C/CO` [Geraniol] came in with an inhibitory constant (Ki) of 36.5 µM.

As to `CC(C)=CCC/C(C)=C\CO` [Nerol], the Ki amounted to 80 µM.

`Cc1ccccc1C` [O-Xylene] gave a Ki of 31 µM.

In turn, `O=CCCc1ccccc1` [3-Benzene propanal] had a Ki of 38.6 µM.

For the compound `C=C1CC/C=C(\C)CC[C@@H]2[C@@H]1CC2(C)C` [β-Caryophyllene], the affinity, expressed as Ki, was 121 µM. Compared with the last compound, the Ki is about 3.1-fold higher.

As to `CC(C)=CCCC(C)CCO` (stereo not drawn) [β-citronellol], the inhibition constant (Ki) came to 38.6 µM. Against the preceding compound, the Ki is about 3.1-fold lower.

Turning to `CCCCCC(=O)CC` [3-Octanone], the Ki came to 59.6 µM.

In turn, `Cc1occc(=O)c1O` [3-hydroxy-2-Methyl-4-pvrone] showed a Ki of 25.4 µM. Against the preceding compound, the Ki is about 2.3-fold lower.

In turn, `COc1ccc(C=O)cc1` [P-Anisaldehyde] registered a Ki of 42.8 µM.

Another assay addresses T1, MusiCSP1. Put plainly: fluorescent probe titration, Scatchard. Format: binding, Megalurothrips usitatus. As to conditions: excitation 337 nm; labelled compound (fluorescent probe).
On to `c1ccc(Nc2cccc3ccccc23)cc1` [1-NPN], for which the Kd was determined as 8.36 µM.

By Ki is commonly meant the dissociation constant of the complex between target and ligand, obtained from inhibition or displacement. As a reminder, the Kd is a measure of binding affinity in units of concentration.
